Assay results from PubChem BioAssay (NCI).
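GI50 marks 50% less growth. At the TGI there is no net growth.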

Key:
Assay in all cases: NCI tumour cell line growth inhibition, 384-well format
[1] = tested on: UACC-62 melanoma
[2] = tested on: SK-MEL-28 melanoma
[3] = tested on: OVCAR-3 ovarian
[4] = tested on: HL-60(TB) leukemia
[5] = tested on: NCI-H460 NSCLC
[6] = tested on: U251 glioblastoma
[7] = tested on: RPMI-8226 leukemia
[8] = tested on: NCI-H522 lung
[9] = tested on: A498 renal
[10] = tested on: 786-0 renal
[11] = tested on: T-47D breast
[12] = tested on: RXF 393 renal
[13] = tested on: SK-MEL-5 melanoma

Structure (SMILES): O=S(=O)(c1ccc2c(c1)C(=NO)c1cc(S(=O)(=O)N3CCCCC3)ccc1-2)N1CCCCC1
- GI50 [1]: 182 nM
- TGI [1]: 323 nM
- GI50 [2]: 171 nM
- TGI [2]: 309 nM
- GI50 [3]: 146 nM
- TGI [3]: 281 nM
- GI50 [4]: 16.9 nM
- TGI [4]: 30.9 nM
- GI50 [5]: 170 nM
- TGI [5]: 314 nM
- GI50 [6]: 189 nM
- TGI [6]: 341 nM
- GI50 [7]: 106 nM
- TGI [7]: 226 nM
- GI50 [8]: 172 nM
- TGI [8]: 314 nM
- GI50 [9]: 1490 nM
- TGI [9]: 3100 nM
- GI50 [10]: 223 nM
- TGI [10]: 525 nM
- GI50 [11]: 155 nM
- TGI [11]: 290 nM
- GI50 [12]: 118 nM
- TGI [12]: 242 nM
- GI50 [13]: 184 nM
- TGI [13]: 359 nM
